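Exposure lasted 48 hours, with cells grown in 96-well plates and compounds tested at five concentrations. GI50 = concentration required for 50% inhibition of growth.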 The source made the active and inactive calls. No stated cut-off is given here; in the data, active = GI50 up to about 1.1 µM and inactive = higher.
How the values were obtained:
Assay in all cases: inhibition of tumour cell growth, NCI panel, 48 h
[1] = tested on: UACC-257
[2] = tested on: TK-10
[3] = tested on: MDA-MB-231
[4] = tested on: SF-268
[5] = tested on: OVCAR-5
[6] = tested on: HOP-62
[7] = tested on: SK-MEL-5
[8] = tested on: 786-0
[9] = tested on: CCRF-CEM
[10] = tested on: SF-295
[11] = tested on: NCI/ADR-RES
[12] = tested on: KM12
[13] = tested on: CAKI-1
[14] = tested on: T47D
[15] = tested on: MDA-N
[16] = tested on: MDA-MB-435
[17] = tested on: HCT-15
[18] = tested on: Hs-578T
[19] = tested on: DLD-1
[20] = tested on: DMS-273

Compound | GI50 [1] | GI50 [2] | GI50 [3] | GI50 [4] | GI50 [5] | GI50 [6] | GI50 [7] | GI50 [8] | GI50 [9] | GI50 [10] | GI50 [11] | GI50 [12] | GI50 [13] | GI50 [14] | GI50 [15] | GI50 [16] | GI50 [17] [µM] | GI50 [18] | GI50 [19] | GI50 [20]
O=c1[nH]c(=O)n(C2CC(O)C(CO)O2)cc1/N=N/NCCCc1ccccc1 (centres undefined) | > 100 µM (inactive) | > 100 µM (inactive) | > 100 µM (inactive) | > 100 µM (inactive) | > 100 µM (inactive) | > 100 µM (inactive) | > 100 µM (inactive) | > 100 µM (inactive) | > 100 µM (inactive) | > 100 µM (inactive) | > 100 µM (inactive) | > 100 µM (inactive) | > 100 µM (inactive) | > 100 µM (inactive) | > 100 µM (inactive) | > 100 µM (inactive) | > 100 | > 100 µM (inactive) | – | –
COc1c(C(=O)/C(=N/Nc2ccc(C(=O)O)cc2)C(C)=O)c(O)cc2occc12 | > 100 µM (inactive) | 15.6 µM (inactive) | > 100 µM (inactive) | > 100 µM (inactive) | > 100 µM (inactive) | > 100 µM (inactive) | 28.8 µM (inactive) | > 100 µM (inactive) | > 100 µM (inactive) | 82.8 µM (inactive) | > 100 µM (inactive) | 55 µM (inactive) | > 100 µM (inactive) | > 100 µM (inactive) | 35.7 µM (inactive) | 46.7 µM (inactive) | 93.8 | > 100 µM (inactive) | – | –
O=P(Nc1ccccc1)(Oc1ccccc1)N1CCN(c2ccccc2)CC1 (centres undefined) | 20.9 µM (inactive) | 21.8 µM (inactive) | 14.9 µM (inactive) | 23.2 µM (inactive) | 17.9 µM (inactive) | 18 µM (inactive) | 19.4 µM (inactive) | 22.1 µM (inactive) | 26.3 µM (inactive) | 18.4 µM (inactive) | 17.6 µM (inactive) | 17.4 µM (inactive) | 24.8 µM (inactive) | 22.6 µM (inactive) | 16.9 µM (inactive) | 20.8 µM (inactive) | 13.8 | 17.9 µM (inactive) | – | –
C[C@@H]1[C@H](c2ccccc2)O[B-]2(c3ccc(Br)cc3)OC(=O)C[N+]12C (some centres undefined) | > 100 µM (inactive) | – | – | 94.2 µM (inactive) | > 100 µM (inactive) | > 100 µM (inactive) | > 100 µM (inactive) | > 100 µM (inactive) | > 100 µM (inactive) | > 100 µM (inactive) | – | > 100 µM (inactive) | 53.3 µM (inactive) | – | – | – | > 100 | – | > 100 µM (inactive) | –
O=C(COc1ccc(OCC(=O)N/N=C/c2ccc(-c3ccc(Cl)cc3Cl)o2)c(Cl)c1)N/N=C/c1ccc(-c2ccc(Cl)cc2Cl)o1 | > 100 µM (inactive) | > 100 µM (inactive) | 35 µM (inactive) | 41.6 µM (inactive) | > 100 µM (inactive) | 27.5 µM (inactive) | > 100 µM (inactive) | 94.4 µM (inactive) | 14.8 µM (inactive) | 32.2 µM (inactive) | 12.3 µM (inactive) | > 100 µM (inactive) | > 100 µM (inactive) | > 100 µM (inactive) | 31.6 µM (inactive) | 24.1 µM (inactive) | > 100 | 80.2 µM (inactive) | – | –
C/C(=N\NC(=O)C[n+]1ccccc1)c1sc(-c2nc(C)c(/C(C)=N/NC(=O)C[n+]3ccccc3)s2)nc1C | > 100 µM (inactive) | > 100 µM (inactive) | – | > 100 µM (inactive) | > 100 µM (inactive) | > 100 µM (inactive) | > 100 µM (inactive) | > 100 µM (inactive) | > 10 µM (inactive) | > 100 µM (inactive) | – | > 100 µM (inactive) | > 100 µM (inactive) | – | – | – | 37.7 | – | > 100 µM (inactive) | –
CN1CCCCC1CCN1c2ccccc2Sc2ccc([S+](C)[O-])cc21 (centres undefined) [MESORIDAZINE] | > 100 µM (inactive) | > 100 µM (inactive) | > 100 µM (inactive) | > 100 µM (inactive) | > 100 µM (inactive) | > 100 µM (inactive) | > 100 µM (inactive) | > 100 µM (inactive) | > 100 µM (inactive) | > 100 µM (inactive) | > 100 µM (inactive) | > 100 µM (inactive) | > 100 µM (inactive) | > 100 µM (inactive) | > 100 µM (inactive) | > 100 µM (inactive) | > 100 | > 100 µM (inactive) | – | –
CSC(=N\c1ccccc1)/N=C(\SCc1ccccc1)N(C)C | 1.57 µM (inactive) | 1.15 µM (inactive) | 1.17 µM (inactive) | 0.971 µM (active) | 1.49 µM (inactive) | 1.7 µM (inactive) | 1.47 µM (inactive) | 0.531 µM (active) | 0.27 µM (active) | 1.43 µM (inactive) | 1.38 µM (inactive) | 0.48 µM (active) | 0.927 µM (active) | 0.427 µM (active) | 0.748 µM (active) | 1.23 µM (inactive) | 0.463 | 0.859 µM (active) | – | 0.59 µM (active)
